Tests used:
[1] = biological target: T1, ClpB (Escherichia coli, UniProt P63284); assay: ClpB ATPase assay; assay type: biochemical, E. coli; conditions: for Normalized ATPase Activity: 10 min, ATP 1 mM, Figure 5A
T1 construct: made in house
Procedure: (§1) Wild-type or mutant Hsp104 (0.25 µM monomer) in ATPase buffer (20 mM HEPES-KOH pH 7.4, 20 mM NaCl and 10 mM MgCl2) was incubated for 60 or 10 min at 25°C in the presence of ATP (1 mM) as noted. ATPase activity was assessed by the release of inorganic phosphate determined by using a malachite green phosphate detection kit (Innova).
(A) ClpB (0.25 µM monomer) was incubated for 10 min with ATP (1 mM) and varying concentrations of Suramin. The amount of Pi produced was measured by absorbance at 635 nm. Absorbance values were normalized to the absorbance produced by ClpB in the absence of inhibitor. Values represent mean ±S.D. (n = 6). (B) Urea-denatured firefly luciferase aggregates were incubated for 90 min at 25°C with ClpB (1 µM hexamer) in the presence of 1∶1 mixtures of ATP and ATPγS and varying concentrations of Suramin. Reactivation of luciferase was then determined by luminescence and converted to % WT ClpB activity (activity of 1 µM WT ClpB in the presence of ATP and ATPγS). Values represent mean ±S.D. (n = 6–12). TEXT PRINTED IN THE PICTURE: (A) Suramin: Normalized ATPase Activity: 1.03 ([Suramin] μM: 0); Normalized ATPase Activity: 0.76 ([Suramin] μM: 100); Normalized ATPase Activity: 0.78 ([Suramin] μM: 50); Normalized ATPase Activity: 0.60 ([Suramin] μM: 25); Normalized ATPase Activity: 0.59 ([Suramin] μM: 10); Normalized ATPase Activity: 0.65 ([Suramin] μM: 5); Normalized ATPase Activity: 1.01 ([Suramin] μM: 1) | (B) Suramin: Normalized Luciferase Refolding Activity: 1.00 ([Suramin] μM: 0); Normalized Luciferase Refolding Activity: 0.16 ([Suramin] μM: 100); Normalized Luciferase Refolding Activity: 1.03 ([Suramin] μM: 50); Normalized Luciferase Refolding Activity: 1.39 ([Suramin] μM: 25); Normalized Luciferase Refolding Activity: 2.23 ([Suramin] μM: 10); Normalized Luciferase Refolding Activity: 1.82 ([Suramin] μM: 5); Normalized Luciferase Refolding Activity: 1.02 ([Suramin] μM: 1)

[2] = test system: Δpdr5 yeast; assay: Thermotolerance of Δpdr5 yeast; assay type: cell-based; conditions: Suramin 100 µM, data not shown
[3] = biological target: T2, Hsp104 with Hsp70 and Hsp40 (Saccharomyces cerevisiae, UniProt P31539); assay: Luciferase reactivation with Hsp70, Hsp40 and Hsp104 plus ATP; assay type: biochemical; conditions: for Normalized Luciferase Refolding Activity: Figure 3D, 70/40/104 (Hsp70 1 µM, Hsp40 1 µM, ATP)
T2 construct: host or cells: E. coli BL21-DE3 RIL (Hsp104)
Procedure: Luciferase reactivation was performed as described, [37]. To assemble aggregates, firefly luciferase (50 µM) in luciferase refolding buffer (LRB, 25 mM HEPES-KOH, 7.4, 150 mM KAOc, 10 mM MgAOc, 10 mM DTT) with 6 M urea was incubated at 30°C for 20 min. Luciferase was then rapidly diluted 100-fold into LRB, divided into 100 µL aliquots, snap frozen in liquid N2, and stored at −80°C. For reactivation assays, aggregated luciferase (50 nM) was incubated with Hsp104 (1 µM hexamer), plus 2.6 mM ATPγS, 2.6 mM ATP and an ATP regeneration system (1 mM creatine phosphate, 0.25 µM creatine kinase (Roche Applied Science)) for 90 minutes at 25°C. Luciferase assay system was purchased from Promega. Luciferase activity was assessed by luminescence measured on a Safire^2 microplate reader (Tecan, Männedorf, Switzerland). The half maximal inhibitory concentration (IC50) was calculating by fitting luciferase-refolding data at different Suramin concentrations with Prism (GraphPad Software, Inc., La Jolla, CA).
(A) Urea-denatured firefly luciferase aggregates were incubated for 90 min at 25°C with Hsp104 (1 µM hexamer) plus 1∶1 mixtures of ATP and ATPγS and varying concentrations of GdmCl. Luciferase reactivation was then determined and converted to % WT disaggregase activity in the presence of ATPγS: ATP. Values represent mean ±S.D. (n = 3–6). (B) Reactions were performed as in (A) except varying concentrations of Suramin were used. Values represent mean ±S.D. (n = 6–10). (C) Half maximal inhibitory concentration (IC50) for Suramin-mediated inhibition of Hsp104. IC50 was calculating by fitting luciferase-refolding data at different Suramin concentrations. (D) Reactions were performed as in (A) except that 1∶1 mixtures of ATP and ATPγS were replaced with Hsp70 (1 µM) and Hsp40 (1 µM) plus ATP. The Hsp104 alone condition (yellow bars) was carried out with 1∶1 mixtures of ATP and ATPγS as in (A). Each condition is normalized to the refolding activity in each corresponding condition in the absence of inhibitor.

[4] = biological target: T3, Hsp104^WT (Saccharomyces cerevisiae, UniProt P31539); assay: Manual ATPase assay, Hsp104^WT; assay type: biochemical, yeast; conditions: for Normalized ATPase Activity: Figure 2B
T3 construct: made in house; host or cells: E. coli BL21-DE3 RIL
Procedure: as §1

T2 sequence (P31539 whole entry): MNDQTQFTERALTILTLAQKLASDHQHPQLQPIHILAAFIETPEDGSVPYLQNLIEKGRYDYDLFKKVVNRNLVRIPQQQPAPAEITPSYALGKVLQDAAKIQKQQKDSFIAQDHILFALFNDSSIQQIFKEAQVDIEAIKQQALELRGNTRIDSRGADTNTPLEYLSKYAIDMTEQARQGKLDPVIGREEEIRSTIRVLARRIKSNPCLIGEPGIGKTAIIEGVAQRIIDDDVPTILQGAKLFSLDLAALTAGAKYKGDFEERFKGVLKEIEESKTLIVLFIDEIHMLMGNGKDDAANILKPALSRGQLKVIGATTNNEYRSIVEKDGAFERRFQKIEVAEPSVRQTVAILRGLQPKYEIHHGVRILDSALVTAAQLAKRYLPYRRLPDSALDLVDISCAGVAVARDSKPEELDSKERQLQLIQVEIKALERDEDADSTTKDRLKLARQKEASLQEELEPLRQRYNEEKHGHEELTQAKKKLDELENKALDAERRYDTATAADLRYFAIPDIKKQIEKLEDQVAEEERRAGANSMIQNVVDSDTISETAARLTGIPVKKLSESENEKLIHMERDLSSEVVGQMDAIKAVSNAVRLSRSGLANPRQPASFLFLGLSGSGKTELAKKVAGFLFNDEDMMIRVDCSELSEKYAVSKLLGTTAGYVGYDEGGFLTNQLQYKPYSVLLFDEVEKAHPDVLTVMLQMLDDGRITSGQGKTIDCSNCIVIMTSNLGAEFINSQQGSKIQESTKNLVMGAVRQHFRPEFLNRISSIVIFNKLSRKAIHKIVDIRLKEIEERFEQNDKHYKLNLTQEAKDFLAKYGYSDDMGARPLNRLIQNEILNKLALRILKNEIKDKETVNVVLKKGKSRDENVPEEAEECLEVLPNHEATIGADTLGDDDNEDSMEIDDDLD
T3 sequence (P31539 whole entry): as above
T1 sequence (P63284 whole entry): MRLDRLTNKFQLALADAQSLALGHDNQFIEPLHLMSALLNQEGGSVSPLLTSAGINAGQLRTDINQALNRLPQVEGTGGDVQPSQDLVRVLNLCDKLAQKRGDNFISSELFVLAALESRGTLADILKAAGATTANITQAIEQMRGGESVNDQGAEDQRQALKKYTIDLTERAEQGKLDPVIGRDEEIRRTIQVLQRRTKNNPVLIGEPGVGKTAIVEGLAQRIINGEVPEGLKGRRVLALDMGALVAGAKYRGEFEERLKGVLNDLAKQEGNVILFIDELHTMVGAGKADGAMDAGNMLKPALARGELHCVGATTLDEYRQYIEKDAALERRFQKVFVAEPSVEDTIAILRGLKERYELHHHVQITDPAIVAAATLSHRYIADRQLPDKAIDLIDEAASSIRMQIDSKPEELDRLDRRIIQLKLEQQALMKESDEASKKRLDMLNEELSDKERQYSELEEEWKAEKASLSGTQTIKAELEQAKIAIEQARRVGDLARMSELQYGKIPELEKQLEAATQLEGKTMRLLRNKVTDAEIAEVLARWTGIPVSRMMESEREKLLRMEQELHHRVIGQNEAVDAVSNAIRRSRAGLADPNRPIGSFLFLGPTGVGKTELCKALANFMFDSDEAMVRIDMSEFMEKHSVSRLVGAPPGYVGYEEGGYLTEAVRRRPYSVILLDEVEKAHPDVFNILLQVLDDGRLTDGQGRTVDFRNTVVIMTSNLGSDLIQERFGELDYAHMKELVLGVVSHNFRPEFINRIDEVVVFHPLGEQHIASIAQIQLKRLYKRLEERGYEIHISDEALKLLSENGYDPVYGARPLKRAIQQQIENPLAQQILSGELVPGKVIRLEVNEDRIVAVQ

## Cc1ccc(C(=O)Nc2ccc(S(=O)(=O)O)c3cc(S(=O)(=O)O)cc(S(=O)(=O)O)c23)cc1NC(=O)c1cccc(NC(=O)Nc2cccc(C(=O)Nc3cc(C(=O)Nc4ccc(S(=O)(=O)O)c5cc(S(=O)(=O)O)cc(S(=O)(=O)O)c45)ccc3C)c2)c1 [Suramin]
[1]; ClpB 0.25 µM monomer, Suramin 100 µM
  Normalized ATPase Activity: 0.76
[1]; ClpB, Suramin 1 µM
  Normalized ATPase Activity: 1.01
[1]; ClpB, Suramin 5 µM
  Normalized ATPase Activity: 0.65
[1]; ClpB, Suramin 10 µM
  Normalized ATPase Activity: 0.59
[1]; ClpB, Suramin 25 µM
  Normalized ATPase Activity: 0.60
[1]; ClpB, Suramin 50 µM
  Normalized ATPase Activity: 0.78
[1]; Suramin 100 µM
  inhibition at 100 µM: 24%
[2]
  Effect on thermotolerance: impaired neither
[3]; Suramin 25 µM
  Normalized Luciferase Refolding Activity: 0.12
[3]; Suramin 100 µM
  Normalized Luciferase Refolding Activity: 0.03
[3]; disaggregation reaction with Hsp70 and Hsp40
  Rescue of inhibition by Hsp70 and Hsp40: not rescued by inclusion of Hsp70 and Hsp40
[4]; 10 min reaction, ATP 1 mM
  IC50: ~3.39 µM
[4]; 60 min, ATP 1 mM, varying concentrations, Figure 2A
  Effect on Hsp104 ATPase activity (Pi produced), manual assay: greatly diminished the amount of Pi produced in a concentration-dependent manner
[4]; Hsp104 WT
  Inhibitor concentration of maximal ATPase inhibition: 25 µM
[4]; Suramin 1 µM, 10 min, ATP 1 mM
  Normalized ATPase Activity: 1.08
[4]; Suramin 5 µM, 10 min, ATP 1 mM
  Normalized ATPase Activity: 0.62
[4]; Suramin 10 µM, 10 min, ATP 1 mM
  Normalized ATPase Activity: 0.37
[4]; Suramin 25 µM, 10 min, ATP 1 mM
  Normalized ATPase Activity: 0.27
[4]; Suramin 25 µM, 10 min, read-out: Hsp104^WT ATPase activity relative to uninhibited Hsp104
  activity at 25 µM: 30%
[4]; Suramin 50 µM, 10 min, ATP 1 mM
  Normalized ATPase Activity: 0.29
[4]; Suramin 100 µM, 10 min
  inhibition at 100 µM: > 60%
[4]; Suramin 100 µM, 10 min, ATP 1 mM
  Normalized ATPase Activity: 0.33
[4]; Suramin 100 µM, 10 min, read-out: Hsp104^WT ATPase activity relative to uninhibited protein
  activity at 100 µM: ~35%
[4]; Suramin 250 µM, 10 min, ATP 1 mM
  Normalized ATPase Activity: 0.37
